Results as given in patent US20210045385A1, “PYRIDAZINONE-SUBSTITUTED KETOXIMES AS HERBICIDES” (FMC Corporation, priority 2018, published 2021).

Experiments:
Format in all cases: in vivo
[1] = system: Italian ryegrass (Lolium multiflorum); assay: Test A preemergence, visual plant response rating; details: for Ryegrass, Italian plant response rating: 125 g ai/ha, preemergence, 0 to 100 scale, 0 no effect, 100 complete control; for Ryegrass, Italian plant response rating (0 to 100 scale): 500 g ai/ha Preemergence, approx. 10 days
Summary of the method: (§1)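 Greenhouse evaluation, approx. 10 days post-spray. Soil: loam + sand. Postemergence stage: 1–2 leaves, height 2–10 cm. Vehicle: non-phytotoxic solvent blend with surfactant. Score: visual injury on a 0 (no effect) to 100 (complete control) scale.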

[2] = system: barnyardgrass (Echinochloa crus-galli); assay: Test A preemergence, visual plant response rating; details: for Barnyardgrass plant response rating: 125 g ai/ha, preemergence, 0 to 100 scale, 0 no effect, 100 complete control; for Barnyardgrass plant response rating (0 to 100 scale): 500 g ai/ha Preemergence, approx. 10 days
Summary of the method: as §1

[3] = system: foxtail, giant (giant foxtail, Setaria faberii); assay: Test A preemergence, visual plant response rating; details: for Foxtail, Giant plant response rating: 125 g ai/ha, preemergence, 0 to 100 scale, 0 no effect, 100 complete control; for Foxtail, Giant plant response rating (0 to 100 scale): 500 g ai/ha Preemergence, approx. 10 days
Summary of the method: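 Ratings use a 0–100 visual scale (100 = complete control) against untreated controls, scored about 10 days after greenhouse treatment. Test chemicals were formulated in surfactant-containing non-phytotoxic solvent and applied either as soil spray after planting (preemergence) or onto one- to two-leaf, 2–10 cm plants (postemergence).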

kochia (Kochia scoparia) [4] = assay: Test A preemergence, visual plant response rating; details: for Kochia plant response rating: 125 g ai/ha, preemergence, 0 to 100 scale, 0 no effect, 100 complete control; for Kochia plant response rating (0 to 100 scale): 500 g ai/ha Preemergence, approx. 10 days
Summary of the method: as §1

[5] = system: pigweed (Amaranthus retroflexus); assay: Test A preemergence, visual plant response rating; details: for Pigweed plant response rating: 125 g ai/ha, preemergence, 0 to 100 scale, 0 no effect, 100 complete control; for Pigweed plant response rating (0 to 100 scale): 500 g ai/ha Preemergence, approx. 10 days
Summary of the method: as §1

[6] = system: ragweed (common ragweed, Ambrosia elatior); assay: Test A preemergence, visual plant response rating; details: for Ragweed plant response rating: 125 g ai/ha, preemergence, 0 to 100 scale, 0 no effect, 100 complete control; for Ragweed plant response rating (0 to 100 scale): 500 g ai/ha Preemergence, approx. 10 days
Summary of the method: as §1

[7] = system: Italian ryegrass (Lolium multiflorum); assay: Test A postemergence, visual plant response rating; details: for Ryegrass, Italian plant response rating (0 to 100 scale): 500 g ai/ha, postemergence, 0 is no effect, 100 is complete control; for Ryegrass, Italian plant response rating: Postemergence, 125 g ai/ha, 0 to 100 scale (0 no effect, 100 complete control)
Summary of the method: as §1

[8] = system: barnyardgrass (Echinochloa crus-galli); assay: Test A postemergence, visual plant response rating; details: for Barnyardgrass plant response rating (0 to 100 scale): 500 g ai/ha, postemergence, 0 is no effect, 100 is complete control; for Barnyardgrass plant response rating: Postemergence, 125 g ai/ha, 0 to 100 scale (0 no effect, 100 complete control)
Summary of the method: as §1

[9] = system: blackgrass (Alopecurus myosuroides); assay: Test A postemergence, visual plant response rating; details: for Blackgrass plant response rating (0 to 100 scale): 500 g ai/ha, postemergence, 0 is no effect, 100 is complete control; for Blackgrass plant response rating: Postemergence, 125 g ai/ha, 0 to 100 scale (0 no effect, 100 complete control)
Summary of the method: as §1

corn (Zea mays) = assay: Test A postemergence, visual plant response rating; details: for Corn plant response rating (0 to 100 scale): 500 g ai/ha, postemergence, 0 is no effect, 100 is complete control; for Corn plant response rating: Postemergence, 125 g ai/ha, 0 to 100 scale (0 no effect, 100 complete control)
Summary of the method: as §1

[10] = system: foxtail, giant (giant foxtail, Setaria faberii); assay: Test A postemergence, visual plant response rating; details: for Foxtail, Giant plant response rating (0 to 100 scale): 500 g ai/ha, postemergence, 0 is no effect, 100 is complete control; for Foxtail, Giant plant response rating: Postemergence, 125 g ai/ha, 0 to 100 scale (0 no effect, 100 complete control)
Summary of the method: as §1

[11] = system: galium (catchweed bedstraw, Galium aparine); assay: Test A postemergence, visual plant response rating; details: for Galium plant response rating (0 to 100 scale): 500 g ai/ha, postemergence, 0 is no effect, 100 is complete control; for Galium plant response rating: Postemergence, 125 g ai/ha, 0 to 100 scale (0 no effect, 100 complete control)
Summary of the method: as §1

kochia (Kochia scoparia) [12] = assay: Test A postemergence, visual plant response rating; details: for Kochia plant response rating (0 to 100 scale): 500 g ai/ha, postemergence, 0 is no effect, 100 is complete control; for Kochia plant response rating: Postemergence, 125 g ai/ha, 0 to 100 scale (0 no effect, 100 complete control)
Summary of the method: as §1

[13] = system: pigweed (Amaranthus retroflexus); assay: Test A postemergence, visual plant response rating; details: for Pigweed plant response rating (0 to 100 scale): 500 g ai/ha, postemergence, 0 is no effect, 100 is complete control; for Pigweed plant response rating: Postemergence, 125 g ai/ha, 0 to 100 scale (0 no effect, 100 complete control)
Summary of the method: as §1

[14] = system: ragweed (common ragweed, Ambrosia elatior); assay: Test A postemergence, visual plant response rating; details: for Ragweed plant response rating (0 to 100 scale): 500 g ai/ha, postemergence, 0 is no effect, 100 is complete control; for Ragweed plant response rating: Postemergence, 125 g ai/ha, 0 to 100 scale (0 no effect, 100 complete control)
Summary of the method: as §1

[15] = system: wheat (Triticum aestivum); assay: Test A postemergence, visual plant response rating; details: for Wheat plant response rating (0 to 100 scale): 500 g ai/ha, postemergence, 0 is no effect, 100 is complete control
Summary of the method: as §1

[16] = system: barnyardgrass (Echinochloa crus-galli); assay: Test B flooded paddy test, visual plant response rating; details: 250 g ai/ha, Flood, applied to paddy water, 2-leaf stage, evaluated after 13 to 15 days
Summary of the method: (§2)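 Greenhouse paddy conditions applied: two-leaf plants, a 3 cm flood above the soil surface maintained throughout, and compound added to the water rather than the foliage. Plants were judged visually against controls at 13 to 15 days.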

[17] = system: ducksalad (Heteranhera limosa); assay: as above; details: 250 g ai/ha, Flood, applied to paddy water, 2-leaf stage, evaluated after 13 to 15 days
Summary of the method: as §2

rice (Oryza sativa) = assay: as above; details: 250 g ai/ha, Flood, applied to paddy water, 2-leaf stage, evaluated after 13 to 15 days
Summary of the method: as §2

[18] = system: sedge, umbrella (small-flower umbrella sedge, Cyperus difformis); assay: as above; details: 250 g ai/ha, Flood, applied to paddy water, 2-leaf stage, evaluated after 13 to 15 days
Summary of the method: as §2

Compound | Ryegrass, Italian plant response rating [1] | Ryegrass, Italian plant response rating (0 to 100 scale) [1] | Barnyardgrass plant response rating [2] | Barnyardgrass plant response rating (0 to 100 scale) [2] | Foxtail, Giant plant response rating [3] | Foxtail, Giant plant response rating (0 to 100 scale) [3] | Kochia plant response rating (kochia (Kochia scoparia) [4]) | Kochia plant response rating (0 to 100 scale) (kochia (Kochia scoparia) [4]) | Pigweed plant response rating [5] | Pigweed plant response rating (0 to 100 scale) [5] | Ragweed plant response rating [6] | Ragweed plant response rating (0 to 100 scale) [6] | Ryegrass, Italian plant response rating (0 to 100 scale) [7] | Ryegrass, Italian plant response rating [7] | Barnyardgrass plant response rating (0 to 100 scale) [8] | Barnyardgrass plant response rating [8] | Blackgrass plant response rating (0 to 100 scale) [9] | Blackgrass plant response rating [9] | Corn plant response rating (0 to 100 scale) (corn (Zea mays)) | Corn plant response rating (corn (Zea mays)) | further results
CON=C(c1c(O)c(C)nn(C)c1=O)c1cccc2sccc12 [Compound 59] | 30 | 90 | 0 | 30 | 30 | 70 | 10 | 60 | 0 | 70 | 30 | 100 | 100 | 80 | 50 | 30 | 80 | 70 | 20 | 0 | Foxtail, Giant plant response rating (0 to 100 scale) [10]: 60; Foxtail, Giant plant response rating [10]: 40; Galium plant response rating (0 to 100 scale) [11]: 90; Galium plant response rating [11]: 70; Kochia plant response rating (0 to 100 scale) (kochia (Kochia scoparia) [12]): 80; Kochia plant response rating (kochia (Kochia scoparia) [12]): 80; Pigweed plant response rating (0 to 100 scale) [13]: 90; Pigweed plant response rating [13]: 80; Ragweed plant response rating (0 to 100 scale) [14]: 80; Ragweed plant response rating [14]: 60; Wheat plant response rating (0 to 100 scale) [15]: 0; Wheat plant response rating ([15]; Postemergence, 125 g ai/ha, 0 to 100 scale (0 no effect, 100 complete control)): 0; Plant response rating, Barnyardgrass (0 to 100 scale, 0 is no effect, 100 is complete control) [16]: 0; Plant response rating, Ducksalad (0 to 100 scale, 0 is no effect, 100 is complete control) [17]: 0; Plant response rating, Rice (0 to 100 scale, 0 is no effect, 100 is complete control) (rice (Oryza sativa)): 0; Plant response rating, Sedge, Umbrella (0 to 100 scale, 0 is no effect, 100 is complete control) [18]: 0
CON=C(c1c(O)c(C)nn(C)c1=O)c1cccc2ccoc12 [Compound 60] | 0 | 40 | 0 | 0 | 10 | 10 | 0 | 0 | 0 | 30 | 0 | 30 | 20 | 10 | 0 | 0 | 10 | 0 | 0 | 0 | Foxtail, Giant plant response rating (0 to 100 scale) [10]: 30; Foxtail, Giant plant response rating [10]: 0; Galium plant response rating (0 to 100 scale) [11]: 70; Galium plant response rating [11]: 60; Kochia plant response rating (0 to 100 scale) (kochia (Kochia scoparia) [12]): 50; Kochia plant response rating (kochia (Kochia scoparia) [12]): 30; Pigweed plant response rating (0 to 100 scale) [13]: 90; Pigweed plant response rating [13]: 50; Ragweed plant response rating (0 to 100 scale) [14]: 40; Ragweed plant response rating [14]: 20; Wheat plant response rating (0 to 100 scale) [15]: 40; Plant response rating, Barnyardgrass (0 to 100 scale, 0 is no effect, 100 is complete control) [16]: 0; Plant response rating, Ducksalad (0 to 100 scale, 0 is no effect, 100 is complete control) [17]: 0; Plant response rating, Rice (0 to 100 scale, 0 is no effect, 100 is complete control) (rice (Oryza sativa)): 0; Plant response rating, Sedge, Umbrella (0 to 100 scale, 0 is no effect, 100 is complete control) [18]: 0
